# Results reported in article PMC4496218 (Oncotarget, 2015).
# Columns and labels:
# B16-F10 cells = assay: MTT cell viability assay; format: cell-based, murine; details: Mus musculus, B16-F10, 24 h, read-out: IC50, cell proliferation
# Description: (§1) Cell viability was determined by detecting the absorbance at 570 nm in a microquant plate reader (Thermo Fisher), triplicate wells were analyzed at each dose.
# HepG2 cells [1] = assay: Wound healing migration assay; format: cell-based, human; details: HepG2, 24 h after wounding; UA 5 μM, US597 0.2, 1, 5 μM
# Description: SW620, B16-F10 and HepG2 cells (5 × 10^5 cells per well) were plated in 6-well plates for 24 h, a perpendicular scratch wound was generated by scratching with a 10 μL pipette tip. […] Cells were photographed using a light microscope (Zeiss, Germany) at 0 and 24 h after the drug treatment. The distance that cells migrated through the scribed area was determined by measuring the wound width at 24 h after treatment, and subtracting it from the wound width at 0 h. Experiments were repeated at least three times.
# L02 cells = assay: MTT cell viability assay, normal liver cells; format: cell-based; details: L02 normal human liver cells, 24 h
# Description: as §1
# [2] = tested on: nine cancer cell lines (MHCC-97H, MHCC-97L, HepG2, M619, MDA-MB-231, MCF-7, HT29, SW620, B16-F10); assay: MTT cell viability assay, span over nine cancer cell lines; format: cell-based; details: 24 h, read-out: IC50 to suppress cell proliferation, span over nine cancer cell lines
# Description: as §1
# [3] = tested on: B16-F10 melanoma lung metastasis; assay: B16-F10/C57BL/6 mouse melanoma lung metastasis model; format: in vivo, C57BL/6 mice; details: 80 mg/kg/day oral, 28 days
# Description: (§2) To establish the lung metastasis model, B16-F10 cells were harvested, washed with serum-free RPMI 1640 and resuspended to give the appropriate concentrations in PBS, and injected into the tail vein of C57BL/6 mice at a density of 5 × 10^4/200 μL. […] Mice weight was measured every four days for 7 times. Mice were sacrificed (n = 6) at the 28st days after tumor inoculation. The heart, liver, spleen, lung, kidney and small intestine were excised, washed with PBS, and fixed in 10% neutral buffered formalin, and these tissues were then paraffin embeddedand stained with hematoxylin and eosin (H&E). The number of surface tumor nodules was determined by visual inspection using a magnifying glass, and histological observations were performed under a microscope (Zeiss, Germany).
# ICAM-1 [4] = assay: qRT-PCR of mRNA in IL-1β-stimulated HUVECs; format: cell-based, human; details: IL-1β 1 ng/mL 4 h, then 24 h, UA 5 μM, US597 0.2, 1, 5 μM
# HepG2 cells [5] = assay: Transwell matrigel invasion assay; format: cell-based, human; details: HepG2, 5 μM, 24 h; control 88 ± 5
# Description: An invasion assay was carried out using 24-well plate. The […] pore-sized transwell inserts were coated with matrigel at 1 mg/mL on the upper chamber. The lower chamber was filled with medium containing 20% FBS as chemoattractant agents. The coated filter and upper chamber were laid over the lower chamber. […] After incubation for 24 h at 37°C, cells were fixed in methanol for 20 min. The cells on the inner layer were softly removed with a cotton swab, and the adherent cells on undersurface of the insert were stained with 0.1% crystal violet dye for 15 min. The filters were washed with PBS and images were taken. The invading cells were counted and photographed under a light microscope (Zeiss, Germany) at × 200 magnification. Five fields were counted per filter in each group and the experiment was conducted in triplicate.
# HUVEC cells = assay: MTT cell viability assay, endothelial cells; format: cell-based; details: Homo sapiens, 24 h
# Description: as §1
# [6] = Toxicity in tumor metastatic mice (body weight, histopathology, blood analysis); format: in vivo, C57BL/6 mice; details: 28 days
# Description: as §2
# VCAM-1 [7] = assay: qRT-PCR of mRNA in IL-1β-stimulated HUVECs; format: cell-based, human; details: IL-1β 1 ng/mL 4 h, then 24 h, 5 μM
# [8] = tested on: integrin α6, integrin β1, FAK, Src, paxillin and PTEN; assay: Western blot of focal adhesion signaling proteins in HepG2 cells; format: cell-based, human; details: 24 h, UA 5 μM, US597 0.2, 1, 5 μM
# Description: Cell dishes were washed with cold phosphate-buffered saline and treated with lysis buffer for several seconds at an ice-cold bath, and then cell lysates were clarified by centrifugation at 12,000 g for 5 min under 4°C and the supernatants were recovered. The concentrations of proteins were determined by the BCA method. Samples with equivalent amounts of proteins were resolved by SDS-PAGE using a 10% gel. Proteins were transferred to a polyvinyldene difluoride (PVDF) membrane. The membranes were washed for ten minutes with TBS (20 mM Tris, 160 mM NaCl) and were blocked by blocking solution (10 mM Tris-HCl (pH 7.4), 125 mM NaCl, 0.1% Tween 20, and 5% skim milk). The blots were washed three times with TBST(20 mM Tris, 160 mM NaCl, 0.1% Tween 20), and they were incubated with specific primary antibodies diluted 1:1000 in TBST solution overnight at 4°C. Subsequently, the blots were washed three times with TBST (20 mM Tris, 160 mM NaCl, 0.1% Tween 20), and then the blots were incubated with secondary antibody (horseradish peroxidase conjugated goat anti-rabbit-IgG) diluted 1:5000 in TBST solution for 2 h at 37°C. […] Chemiluminescent signals were generated using a Super Signal West Pico Chemiluminescent Substrate kit (Pierce), and detected by using the ChemiDoc XRS system (Bio-Rad). The target proteins expression was quantified by use of Image Lab analysis software (Bio-Rad).
# VCAM-1 [9] = assay: Flow cytometry of surface expression on IL-1β-stimulated HUVECs; format: cell-based, human; details: 5 μM, 24 h
# Description: (§3) Cells expression of ICAM-1, VCAM-1, E-selectin, integrin α4, α5, α6 and β1 were performed via flow cytometry. […] After incubation, the cells were washed twice with PBS and collected for staining. The cells and primary antibodies were incubated at 4°C for 20 min in the dark. After washing with staining buffer, cell adhesion molecule (ICAM-1, VCAM-1 and E-selectin) and integrins (integrin α6 and β1) expression on cell-surface were measured by BD FACSAriaIII flow cytometry. The data were processed by FlowJo software and expressed as the mean fluorescent intensities.
# ICAM-1 [10] = assay: as above; format: cell-based, human; details: 5 μM, 24 h
# Description: as §3
# MHCC-97L cells = assay: MTT cell viability assay; format: cell-based; details: Homo sapiens, MHCC97L, 24 h, read-out: IC50, cell proliferation
# Description: as §1
# HepG2 cells [11] = assay: MTT cell viability assay; format: cell-based; details: Homo sapiens, HepG2, 24 h, read-out: IC50, cell proliferation
# Description: as §1
# MHCC-97H cells = assay: MTT cell viability assay; format: cell-based; details: Homo sapiens, MHCC97H, 24 h, read-out: IC50, cell proliferation
# Description: as §1
# ICAM-1 [12] = assay: ICAM-1 immunohistochemistry of lung tissue; format: in vivo, C57BL/6 mice; details: UA group and high dose US597 group, P < 0.01
# Description: Frozen sections (6 μm) were stained with anti-ICAM-1 antibody as previously described. ICAM-1 expression in lung tissue was performed with avidin-biotin complex (ABC) method. Results for ICAM-1 positive cells are shown as × 200 magnification.
compound,measurement,setting,value
"C[C@H]1[C@H](C)CC[C@]2(C(=O)O)CC[C@]3(C)C(=CC[C@@H]4[C@@]5(C)CC[C@H](O)C(C)(C)[C@@H]5CC[C@]43C)[C@H]12 [UA, 3β-hydroxy-urs-12-en-28-oic acid]",IC50,B16-F10 cells,31.7 µM
same,cell migration in wound healing assay,HepG2 cells [1],showed less migration in wound area
same,IC50,L02 cells,41.9 µM
same,IC50,[2],31.7 to 60.1 µM
same,"inhibitory rate, number of lung metastatic nodules",[3],14.45%
same,ICAM-1 mRNA expression,ICAM-1 [4],inhibited the induction
same,average number of invaded cells,HepG2 cells [5],75 ± 3
same,IC50,HUVEC cells,51.1 µM
same,LYMPH,"[6]; 80 mg/Kg, normal range 0.9 – 9.3, control 6.82 ± 2.17",3.65 ± 1.48 × 10^9/L
same,WBC,"[6]; 80 mg/Kg, normal range 1.8 – 10.7, control 9.31 ± 1.28",7.14 ± 0.33 × 10^9/L
same,RBC,"[6]; 80 mg/Kg, normal range 6.36 – 9.42, control 9.04 ± 0.27",8.84 ± 2.31 × 10^12/L
same,HGB,"[6]; 80 mg/Kg, normal range 110.0 – 151.0, control 136.42 ± 1.15",131.56 ± 0.89 g/L
same,PLT,"[6]; 80 mg/Kg, normal range 592 – 2972, control 1583 ± 126",1461 ± 251 × 10^9/L
same,animal body loss,[6]; 80 mg/kg daily oral,did not induce significant animal body loss
same,"histopathology of heart, liver, spleen, kidney and small intestine","[6]; 80 mg/kg daily oral, H&E",no remarkable histopathological abnormalities or lesions
same,VCAM-1 mRNA expression,VCAM-1 [7],almost no change
same,"protein expression of integrin α6, integrin β1, FAK, Src, paxillin and PTEN",[8],the effect was prominent
same,"VCAM-1 expression, % of control",VCAM-1 [9],no significant effect
same,"ICAM-1 expression, % of control",ICAM-1 [10],no significant effect
same,IC50,MHCC-97L cells,32.2 µM
same,IC50,HepG2 cells [11],33.1 µM
same,IC50,MHCC-97H cells,36.1 µM
same,ICAM-1 expression in lung tissue vs control,ICAM-1 [12],significantly decreased
